According to PubChem BioAssay AID274 (DTP/NCI, 2004):
Values joined by “and” are separate entries in the source; they are usually repeats but may differ in a detail not shown here. Identical values can stand only once. Inconclusive results and toxic doses are left out. The calls were made as follows: active = survival T/C of 150% or more; inactive = T/C below 125% in these data.

Test system: BDF1 mice, Lewis lung carcinoma iv, survival T/C
Assay: NCI In Vivo Anticancer Drug Screen. Data for tumor model Lewis Lung Carcinoma (intravenous) in B6D2F1 (BDF1) mice
Settings: endpoint: median survival time, higher = longer survival
Procedure: The antitumor activity of compounds was measured in mice bearing transplantable tumors. Survival or tumor size were measured and the results are expressed as the measurement made in the treated group (T) divided by the measurement made in the vehicle treated control group (C). The tumor model used in this assay is Lewis Lung Carcinoma (intravenous) in B6D2F1 (BDF1) mice

[1] = dose: 12.5 mg/kg/injection, schedule: Q01DX009 (ip), vehicle: saline
[2] = dose: 25.0 mg/kg/injection, schedule: Q01DX009 (ip), vehicle: saline
[3] = dose: 50.0 mg/kg/injection, schedule: Q01DX009 (ip), vehicle: saline
[4] = dose: 100.0 mg/kg/injection, schedule: Q01DX009 (ip), vehicle: saline
[5] = dose: 200.0 mg/kg/injection, schedule: Q01DX009 (ip), vehicle: saline
[6] = dose: 25.0 mg/kg/injection, schedule: Q01DX009 (ip), vehicle: Klucel (hydroxypropylcellulose) (HPC)
[7] = dose: 50.0 mg/kg/injection, schedule: Q01DX009 (ip), vehicle: Klucel (hydroxypropylcellulose) (HPC)
[8] = dose: 100.0 mg/kg/injection, schedule: Q01DX009 (ip), vehicle: Klucel (hydroxypropylcellulose) (HPC)
[9] = dose: 200.0 mg/kg/injection, schedule: Q01DX009 (ip), vehicle: Klucel (hydroxypropylcellulose) (HPC)
[10] = dose: 400.0 mg/kg/injection, schedule: Q01DX009 (ip), vehicle: Klucel (hydroxypropylcellulose) (HPC)
[11] = dose: 1.0 mg/kg/injection, schedule: Q01DX009 (ip), vehicle: saline
[12] = dose: 2.0 mg/kg/injection, schedule: Q01DX009 (ip), vehicle: saline
[13] = dose: 4.0 mg/kg/injection, schedule: Q01DX009 (ip), vehicle: saline
[14] = dose: 12.5 mg/kg/injection, schedule: Q01DX009 (ip), vehicle: water
[15] = dose: 25.0 mg/kg/injection, schedule: Q01DX009 (ip), vehicle: water
[16] = dose: 50.0 mg/kg/injection, schedule: Q01DX009 (ip), vehicle: water
[17] = dose: 100.0 mg/kg/injection, schedule: Q01DX009 (ip), vehicle: water
[18] = dose: 50.0 mg/kg/injection, schedule: Q01DX009 (ip), vehicle: saline with Tween-80
[19] = dose: 100.0 mg/kg/injection, schedule: Q01DX009 (ip), vehicle: saline with Tween-80
[20] = dose: 25.0 mg/kg/injection, schedule: Q01DX009 (ip), vehicle: saline with Tween-80

Measured: T/C

CC(C)NNC(=O)c1ccncc1
inactive: dose: 19.4 mg/kg/injection, schedule: Q01DX007 (ip), vehicle: Klucel (hydroxypropylcellulose) (HPC) 95 % of control | dose: 32.4 mg/kg/injection, schedule: Q01DX007 (ip), vehicle: Klucel (hydroxypropylcellulose) (HPC) 91 % of control | dose: 54.0 mg/kg/injection, schedule: Q01DX007 (ip), vehicle: Klucel (hydroxypropylcellulose) (HPC) 95 % of control | dose: 90.0 mg/kg/injection, schedule: Q01DX007 (ip), vehicle: Klucel (hydroxypropylcellulose) (HPC) 96 % of control | dose: 150.0 mg/kg/injection, schedule: Q01DX007 (ip), vehicle: Klucel (hydroxypropylcellulose) (HPC) 91 % of control

O=c1[nH]c(=O)c2nc(-c3cccnc3)cnc2[nH]1
inactive: [1] 102 % of control | [2] 101 % of control | [3] 108 % of control | [4] 100 % of control | [5] 111 % of control | dose: 400.0 mg/kg/injection, schedule: Q01DX009 (ip), vehicle: saline 111 % of control

CN(C1=NS(=O)(=O)N=C(N(C)c2ccccc2)O1)c1ccccc1
inactive: dose: 12.5 mg/kg/injection, schedule: Q01DX009 (ip), vehicle: Klucel (hydroxypropylcellulose) (HPC) 97 % of control | [6] 102 % of control | [7] 97 % of control | [8] 99 % of control | [9] 117 % of control | [10] 102 % of control

CCCCCCCCCCCC(c1ccccc1)[N+](C)(C)C (centres undefined)
inactive: [11] 96 % of control | [12] 105 % of control | [13] 101 % of control

Nc1nc2c(ncn2C2OC(CO)C(O)C2O)c(=O)[nH]1.Nc1nc2c(ncn2C2OC(CO)C(O)C2O)c(=O)[nH]1.[NH2-].[NH2-].[Pt+2] (centres undefined)
inactive: [14] 99 % of control | [15] 96 % of control | [16] 104 % of control | [17] 113 % of control

CN1CCN(CCCN2c3ccccc3Sc3ccc(C(F)(F)F)cc32)CC1
inactive: dose: 3.12 mg/kg/injection, schedule: Q01DX009 (ip), vehicle: saline 109 % of control | dose: 6.25 mg/kg/injection, schedule: Q01DX009 (ip), vehicle: saline 120 % of control | [1] 109 % of control

NC(=S)n1cccn1
inactive: [18] 99 % of control | [19] 94 % of control | dose: 200.0 mg/kg/injection, schedule: Q01DX009 (ip), vehicle: saline with Tween-80 103 % of control

Nc1ccc(OC(=O)Oc2ccc(N)cc2)cc1
inactive: [4] 102 % of control | [5] 113 % of control

Cc1ccccc1N(CC1CO1)CC1CO1 (centres undefined)
inactive: [1] 106 % of control | [2] 103 % of control | [3] 109 % of control | [4] 100 % of control | [5] 110 % of control

Cc1oc2c(C)c3oc(=O)cc(C)c3cc2c1CCl
inactive: dose: 12.5 mg/kg/injection, schedule: Q01DX009 (ip), vehicle: saline with Tween-80 102 % of control | [20] 101 % of control | [18] 95 % of control

ClCc1ccc2ccccc2n1
inactive: [20] 100 % of control | [18] 92 % of control | [19] 119 % of control

CC/C(=C(/CC)c1ccc(O)cc1)c1ccc(O)cc1
inactive: [14] 123 % of control | [15] 102 % of control | [16] 102 % of control | [17] 106 % of control | dose: 200.0 mg/kg/injection, schedule: Q01DX009 (ip), vehicle: water 120 % of control

C/C=C(\C)c1cc(=O)c2c(C)cc3c(c2o1)C(=O)c1c(O)c(C2CC(C)(N(C)C)C(O)C(C)O2)cc(C2CC(N(C)C)C(O)C(C)O2)c1C3=O (centres undefined)
inactive: dose: 31.25 micrograms/kg/injection, schedule: Q01DX009 (ip), vehicle: saline 103 % of control | dose: 62.5 micrograms/kg/injection, schedule: Q01DX009 (ip), vehicle: saline 106 % of control | dose: 125.0 micrograms/kg/injection, schedule: Q01DX009 (ip), vehicle: saline 112 % of control | dose: 250.0 micrograms/kg/injection, schedule: Q01DX009 (ip), vehicle: saline 86 % of control

COc1c2occc2cc2ccc(=O)oc12
inactive: dose: 8.0 mg/kg/injection, schedule: Q01DX009 (ip), vehicle: saline with Tween-80 109 % of control | dose: 16.0 mg/kg/injection, schedule: Q01DX009 (ip), vehicle: saline with Tween-80 109 % of control | dose: 32.0 mg/kg/injection, schedule: Q01DX009 (ip), vehicle: saline with Tween-80 96 % of control | dose: 64.0 mg/kg/injection, schedule: Q01DX009 (ip), vehicle: saline with Tween-80 113 % of control | dose: 128.0 mg/kg/injection, schedule: Q01DX009 (ip), vehicle: saline with Tween-80 110 % of control

OC(C1CO1)C(O)C1CO1 (centres undefined)
inactive: dose: 0.25 mg/kg/injection, schedule: Q01DX009 (ip), vehicle: saline 93 % of control | dose: 0.5 mg/kg/injection, schedule: Q01DX009 (ip), vehicle: saline 94 % of control and 107 % of control | [11] 100 % of control and 113 % of control | [12] 95 % of control | [13] 121 % of control

CC(C)[NH-].CC(C)[NH-].O.O.[Cl][Pt+2][Cl]
inactive: dose: 3.13 mg/kg/injection, schedule: Q01DX009 (ip), vehicle: dextrose 100 % of control | dose: 6.25 mg/kg/injection, schedule: Q01DX009 (ip), vehicle: dextrose 102 % of control

COc1cccc2c1C(=O)c1c(O)c3c(c(O)c1C2=O)C[C@@](O)(/C(C)=N\NC(=O)CO)C[C@@H]3OC1CC(N)C(O)C(C)O1 (some centres undefined)
inactive: dose: 0.37 mg/kg/injection, schedule: Q01DX009 (ip), vehicle: saline 105 % of control | dose: 0.75 mg/kg/injection, schedule: Q01DX009 (ip), vehicle: saline 106 % of control | dose: 1.5 mg/kg/injection, schedule: Q01DX009 (ip), vehicle: saline 101 % of control | dose: 3.0 mg/kg/injection, schedule: Q01DX009 (ip), vehicle: saline 115 % of control | dose: 6.0 mg/kg/injection, schedule: Q01DX009 (ip), vehicle: saline 103 % of control | dose: 12.0 mg/kg/injection, schedule: Q01DX009 (ip), vehicle: saline 105 % of control

CC(=O)OCC1OC(n2ncc(=O)[nH]c2=O)C(OC(C)=O)C1OC(C)=O (centres undefined)
inactive: [8] 100 % of control | [9] 109 % of control | [10] 107 % of control

COC(=O)Nc1cccc(-c2nc3ccc(NC(=O)OC)cc3c(=O)n2-c2ccccc2)c1
inactive: dose: 8.0 mg/kg/injection, schedule: Q01DX009 (ip), vehicle: Klucel (hydroxypropylcellulose) (HPC) 95 % of control | dose: 8.0 mg/kg/injection, schedule: Q01DX009 (ip), vehicle: saline 92 % of control | dose: 16.0 mg/kg/injection, schedule: Q01DX009 (ip), vehicle: Klucel (hydroxypropylcellulose) (HPC) 92 % of control | dose: 16.0 mg/kg/injection, schedule: Q01DX009 (ip), vehicle: saline 97 % of control | dose: 32.0 mg/kg/injection, schedule: Q01DX009 (ip), vehicle: Klucel (hydroxypropylcellulose) (HPC) 99 % of control | dose: 32.0 mg/kg/injection, schedule: Q01DX009 (ip), vehicle: saline 109 % of control | dose: 64.0 mg/kg/injection, schedule: Q01DX009 (ip), vehicle: Klucel (hydroxypropylcellulose) (HPC) 109 % of control | dose: 64.0 mg/kg/injection, schedule: Q01DX009 (ip), vehicle: saline 108 % of control | dose: 128.0 mg/kg/injection, schedule: Q01DX009 (ip), vehicle: saline 115 % of control

Cc1cc(N(CCOS(C)(=O)=O)CCOS(C)(=O)=O)ccc1C=Nc1ccc(-c2nc(Cc3ccccc3)sc2C)cc1
inactive: [6] 117 % of control | [7] 87 % of control

CC(C)NC(=O)OCc1c(COC(=O)NC(C)C)c(-c2ccc(Cl)c(Cl)c2)n2c1CCC2
inactive: dose: 1.56 mg/kg/injection, schedule: Q01DX009 (ip), vehicle: distilled water + Tween-80 108 % of control | dose: 3.13 mg/kg/injection, schedule: Q01DX009 (ip), vehicle: distilled water + Tween-80 97 % of control | dose: 6.25 mg/kg/injection, schedule: Q01DX009 (ip), vehicle: distilled water + Tween-80 101 % of control | dose: 12.5 mg/kg/injection, schedule: Q01DX009 (ip), vehicle: distilled water + Tween-80 119 % of control | dose: 50.0 mg/kg/injection, schedule: Q01DX009 (ip), vehicle: distilled water + Tween-80 109 % of control
